Patent US12338203B2 (TAISHO PHARMACEUTICAL CO., LTD., priority 2019, dated 2025)
pIC50: −log10 of the molar value. Read-outs that look alike come from different tables or passages of the source.

Biological target: T1, human LPAR1 (Homo sapiens, UniProt Q92633)
T1 construct: expressed in transfected cells
Assay: Test Example 1: antagonism against response of LPA-induced increase in intracellular Ca2+ concentration in RH7777 cells stably expressing human LPAR1
Assay type: cell-based
Conditions: for IC50: RH7777 cells stably expressing human LPAR1, Fluo-4 fluorescence, FDSS6000, read-out: IC50 value (concentration producing 50% antagonism against response of LPA-induced increase in intracellular Ca2+ concentration) (converted)
Procedure: (1) Preparation of RH7777 cells stably expressing human LPAR1
The human LPAR1 expression vector was transfected into RH7777 cells to acquire human LPAR1 expressing cells.
(2) Test of antagonism against response of LPA-induced increase in intracellular Ca^2+ concentration
Cells stably expressing human LPAR1 were used for a test of antagonism against response of LPA-induced increase in intracellular Ca^2+ concentration.
The cells were seeded onto the Poly-D-Lysine 96 well black plate and incubated overnight. […] 50 μL of the Basal Buffer (1×HBSS, 20 mM HEPES, 2.5 mM Probenecid, 0.05% BSA, 0.25 mg/mL Amaranth, pH 7.4) containing the test compound was added thereto, followed by incubation at 37° C. for 30 minutes. In FDSS6000 (Hamamatsu Photonics K.K.), LPAs were added, and the change in intracellular Ca^2+ concentration was detected using the fluorescence value of a wavelength of 540 nm by an excitation wavelength of 480 nm as an indicator. […] The Rmax under […] without the test compound was used as the control value. The Rmax under Basal Buffer stimulation with no LPAs or test compounds was used as the basal value.
The percentage (%) of increase in intracellular Ca^2+ concentration was calculated by dividing the value obtained by subtracting the basal value from Rmax in the presence of LPAs and each concentration of the test compound by the value obtained by subtracting the basal value from the control value. The concentration of each test compound was plotted on the X axis and the percentage (%) of increase in intracellular Ca^2+ concentration was plotted on the Y axis, and the IC50 value was calculated by nonlinear regression using XLfit.

T1 sequence (Q92633 whole entry): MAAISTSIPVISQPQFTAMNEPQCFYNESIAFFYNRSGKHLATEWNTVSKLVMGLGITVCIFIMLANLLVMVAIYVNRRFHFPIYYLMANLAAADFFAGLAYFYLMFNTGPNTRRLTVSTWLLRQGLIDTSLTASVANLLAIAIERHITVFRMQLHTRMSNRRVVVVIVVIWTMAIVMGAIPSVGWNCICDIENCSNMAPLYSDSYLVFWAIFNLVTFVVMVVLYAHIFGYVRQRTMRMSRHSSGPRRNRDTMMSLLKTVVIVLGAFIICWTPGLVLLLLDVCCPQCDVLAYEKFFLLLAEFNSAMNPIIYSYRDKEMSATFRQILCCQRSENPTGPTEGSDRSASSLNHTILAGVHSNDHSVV

SMILES | IC50 [nM] | pIC50
CCOc1cc([C@@H](C)N(CCCCc2ccccc2)C(=O)NC2(C(=O)O)CCC2)cc(OCC)c1C(C)O (single isomer, unassigned) [Example 1-21] | 3.38 | –
CCOc1cc([C@@H](C)N(CCCCc2ccccc2)C(=O)NC2(C(=O)O)CCC2)cc(OCC)c1C(C)O (single isomer, unassigned) [Example 1-22] | 1.47 | –
CCOc1cc([C@@H](C)N(CCCCc2ccccc2)C(=O)NC2(C(=O)O)CC(F)(F)C2)cc(OCC)c1C(C)O (single isomer, unassigned) [Example 1-35] | 1.81 | –
CCOc1cc([C@@H](C)N(CCCCc2ccccc2)C(=O)NC2(C(=O)O)CC(F)(F)C2)cc(OCC)c1C(C)O (single isomer, unassigned) [Example 1-36] | 1.04 | –
CCOc1c(C(C)O)ccc([C@@H](C)N(CCCCc2ccccc2)C(=O)NC2(C(=O)O)CC(F)(F)C2)c1C (single isomer, unassigned) [Example 1-78] | 5.87 | –
CCOc1c(C(C)O)ccc([C@@H](C)N(CCCCc2ccccc2)C(=O)NC2(C(=O)O)CC(F)(F)C2)c1C (single isomer, unassigned) [Example 1-79] | 7.86 | –
CCOc1cc([C@@H](C)N(CCCCc2ccccc2)C(=O)NC2(C(=O)O)CC(OC)C2)cc(OCC)c1C(C)O (single isomer, unassigned) [Example 1-88] | 3.35 | –
CCOc1cc([C@@H](C)N(CCCCc2ccccc2)C(=O)NC2(C(=O)O)CC(OC)C2)cc(OCC)c1C(C)O (single isomer, unassigned) [Example 1-89] | 2.21 | –
CCOc1cc([C@@H](C)N(CCCC(F)(F)c2ccccc2)C(=O)NC2(C(=O)O)CC(OC)C2)cc(OCC)c1C(C)O (single isomer, unassigned) [Example 4-61] | 3.99 | –
CCOc1cc([C@@H](C)N(CCCC(F)(F)c2ccccc2)C(=O)NC2(C(=O)O)CC(OC)C2)cc(OCC)c1C(C)O (single isomer, unassigned) [Example 4-62] | 5.15 | –
CCOc1cc([C@@H](C)N(CCC(F)(F)Cc2ccccc2)C(=O)NC2(C(=O)O)CC(F)(F)C2)cc(OCC)c1C(C)O (single isomer, unassigned) [Example 4-85] | 16.1 | –
CCOc1cc([C@@H](C)N(CCC(F)(F)Cc2ccccc2)C(=O)NC2(C(=O)O)CC(F)(F)C2)cc(OCC)c1C(C)O (single isomer, unassigned) [Example 4-86] | 2.75 | –
CCOc1cc([C@@H](C)N(CCO[C@@H](C)c2ccccc2)C(=O)NC2(C(=O)O)CCOCC2)cc(OCC)c1C(C)O (single isomer, unassigned) [Example 4-143] | 47.4 | –
CCOc1cc([C@@H](C)N(CCO[C@@H](C)c2ccccc2)C(=O)NC2(C(=O)O)CCOCC2)cc(OCC)c1C(C)O (single isomer, unassigned) [Example 4-144] | 8.19 | –
CCOc1cc([C@@H](C)N(CCCCc2ccccc2)C(=O)NC2(C(=O)O)CC(F)(F)C2)c(Cl)c(OCC)c1C(C)O (single isomer, unassigned) [Example 5-52] | 1.95 | –
CCOc1cc([C@@H](C)N(CCCCc2ccccc2)C(=O)NC2(C(=O)O)CC(F)(F)C2)c(Cl)c(OCC)c1C(C)O (single isomer, unassigned) [Example 5-53] | 2.54 | –
CCOc1cc([C@@H](C)N(CCOCc2ccccc2)C(=O)NC2(C(=O)O)CC(F)(F)C2)c(Cl)c(OCC)c1C(C)O (single isomer, unassigned) [Example 5-55] | 1.09 | –
CCOc1cc([C@@H](C)N(CCOCc2ccccc2)C(=O)NC2(C(=O)O)CC(F)(F)C2)c(Cl)c(OCC)c1C(C)O (single isomer, unassigned) [Example 5-56] | 1.04 | –
CCOc1cc([C@@H](C)N(CCO[C@@H](C)c2ccccc2)C(=O)NC2(C(=O)O)CC(OC)C2)c(Cl)c(OCC)c1C(C)O (single isomer, unassigned) [Example 5-57] | 4.08 | –

SMILES | IC50 [nM] | pIC50
CCOc1cc([C@@H](C)N(CCO[C@@H](C)c2ccccc2)C(=O)NC2(C(=O)O)CC(OC)C2)c(Cl)c(OCC)c1C(C)O (single isomer, unassigned) [Example 5-58] | 3.82 | –
CCOc1cc([C@@H](C)N(CCO[C@@H](C)c2ccccc2)C(=O)N[C@]2(C(=O)O)C[C@H](OC)C2)c(Cl)c(OCC)c1C(C)O (single isomer, unassigned) [Example 5-59] | 8.01 | –
CCOc1cc([C@@H](C)N(CCO[C@@H](C)c2ccccc2)C(=O)N[C@]2(C(=O)O)C[C@H](OC)C2)c(Cl)c(OCC)c1C(C)O (single isomer, unassigned) [Example 5-60] | 9.05 | –
CCOc1cc([C@@H](C)N(CCO[C@@H](C)c2ccccc2)C(=O)N[C@]2(C(=O)O)C[C@@H](OCC)C2)c(Cl)c(OCC)c1C(C)O (single isomer, unassigned) [Example 5-61] | 3.17 | –
CCOc1cc([C@@H](C)N(CCO[C@@H](C)c2ccccc2)C(=O)N[C@]2(C(=O)O)C[C@@H](OCC)C2)c(Cl)c(OCC)c1C(C)O (single isomer, unassigned) [Example 5-62] | 1.56 | –
CCOc1cc([C@@H](C)N(CCOCc2ccccc2)C(=O)NC2CCOCC2C(=O)O)c(Cl)c(OCC)c1C(C)O (single isomer, unassigned) [Example 5-69] | 3.3 | –
CCOc1cc([C@@H](C)N(CCOCc2ccccc2)C(=O)NC2CCOCC2C(=O)O)c(Cl)c(OCC)c1C(C)O (single isomer, unassigned) [Example 5-70] | 4.29 | –
CCNc1cc(C(C)N(CCCCc2ccccc2)C(=O)NC2(C(=O)O)CCC2)cc(OCC)c1C(C)=O (single isomer, unassigned) [Example 5-111] | 128 | –
CCOc1cc(C(C)N(CCCCc2ccccc2)C(=O)NC2(P(=O)(O)O)CCCC2)cc(OCC)c1C (single isomer, unassigned) [Example 8-1, [1-({[1-(3,5-Diethoxy-4-Methylphenyl)Ethyl](4-Phenylbutyl) Carbamoyl}Amino)Cyclopentyl]Phosphonic Acid] | 52.1 | –
CCOc1cc(C(C)N(CCCCc2ccccc2)C(=O)NC2(P(=O)(O)O)CCCC2)cc(OCC)c1C (single isomer, unassigned) [Example 8-2] | 20 | –
CCOc1cc(C(C)N(CCCCc2ccccc2)C(=O)NC2(c3nn[nH]n3)CC(F)(F)C2)c(Cl)c(OCC)c1C(C)=O (centres unmarked) [10-8] | 9.3 | –
CCOc1cc([C@@H](C)N(CCCCc2ccccc2)C(=O)NC(C)(C)C(=O)O)cc(OCC)c1C(C)=O [Example 1-1, N-{[(1R)-1-(4-Acetyl-3,5-Diethoxyphenyl)Ethyl](4-Phenylbutyl) Carbamoyl}-2-Methylalanine] | 3.17 | –
CCCCC(NC(=O)N(CCCCc1ccccc1)Cc1cc(OC)c(C)c(OC)c1)C(=O)O (centres unmarked) [Example 1-3] | – | 5.74
CCCCC(NC(=O)N(CCCCc1ccccc1)[C@H](C)c1cc(OCC)c(C)c(OCC)c1)C(=O)O (some centres unmarked) [Example 1-4] | 25.5 | –
COc1cc(CN(CCCCc2ccccc2)C(=O)NC(CC(C)C)C(=O)O)cc(OC)c1C (centres unmarked) [Example 1-5] | – | 5.33
COc1cc(CN(CCCCc2ccccc2)C(=O)NC(CC(F)(F)F)C(=O)O)cc(OC)c1C (centres unmarked) [Example 1-6] | 1580 | –
CCOc1cc(C(C)N(CCCCc2ccccc2)C(=O)NC(Cc2ccccc2)C(=O)O)cc(OCC)c1C (centres unmarked) [Example 1-8] | 125 | –
CCOc1cc(C(C)N(CCCCc2ccccc2)C(=O)NC(CCc2ccccc2)C(=O)O)cc(OCC)c1C (centres unmarked) [Example 1-9] | 129 | –
CCOc1cc(C(C)N(CCCCc2ccccc2)C(=O)NC(Cc2cccnc2)C(=O)O)cc(OCC)c1C (centres unmarked) [Example 1-10] | 88.5 | –
